Data: ChEMBL document CHEMBL1201862, “PubChem BioAssay data set” (2004)
Activity calls are given as the source filed them.

Tests used:
[1] = Dd2 malaria parasite growth inhibition potency – SYBR Green, dry powder samples, dose response (AID 1159566); type: functional, cell-based;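 also: potency for growth inhibition with lower SYBR green DNA signal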
[2] = toxicity to human HepG2 hepatoma cells – cell-based, plate reader, dry powder samples, cytotoxicity control, dose response (AID 1159569); type: functional;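 also: inhibitor potency with signal falling toward the positive control level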
[3] = growth inhibition of yeast DHODH-expressing 3D7 parasites – SYBR Green, dry powder samples, dose response (AID 1159570); type: functional, cell-based;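 also: parasite growth measured after 72 hours of compound exposure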
[4] = growth inhibition of PfATP4-mutant resistant parasites – NITD609-resistant line, SYBR Green, dry powder, dose response (AID 1159571); type: functional, cell-based;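 also: parasites synchronized at ring stage by sorbitol before testing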
[5] = P. falciparum Dd2 growth inhibitors, dose response, SYBR Green, cherry-picked samples (AID 1159567); type: functional, cell-based
H9c2 = assay: cells; type: functional, cell-based; conditions: Rattus norvegicus, H9c2, Myocardium;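 also: confirmatory concentration-response retest of ultra-high-throughput screening hits for modulation of myocardial damage; cell death induced by hydrogen peroxide oxidative stress; compound pretreatment for 60 min then peroxide exposure for 2 h; potency is for protecting the cells against peroxide damage rather than for killing them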
[6] = molecular target: T1, 1-phosphatidylinositol 4,5-bisphosphate phosphodiesterase gamma-1 (Homo sapiens, UniProt P19174); assay: Counterscreen for inhibitors of phospholipase C isozymes (PLC-B3): Fluorescence-based biochemical high throughput dose response assay to identify inhibitors of phospholipase C isozymes (PLC-gamma1).
T1 sequence (P19174 whole entry): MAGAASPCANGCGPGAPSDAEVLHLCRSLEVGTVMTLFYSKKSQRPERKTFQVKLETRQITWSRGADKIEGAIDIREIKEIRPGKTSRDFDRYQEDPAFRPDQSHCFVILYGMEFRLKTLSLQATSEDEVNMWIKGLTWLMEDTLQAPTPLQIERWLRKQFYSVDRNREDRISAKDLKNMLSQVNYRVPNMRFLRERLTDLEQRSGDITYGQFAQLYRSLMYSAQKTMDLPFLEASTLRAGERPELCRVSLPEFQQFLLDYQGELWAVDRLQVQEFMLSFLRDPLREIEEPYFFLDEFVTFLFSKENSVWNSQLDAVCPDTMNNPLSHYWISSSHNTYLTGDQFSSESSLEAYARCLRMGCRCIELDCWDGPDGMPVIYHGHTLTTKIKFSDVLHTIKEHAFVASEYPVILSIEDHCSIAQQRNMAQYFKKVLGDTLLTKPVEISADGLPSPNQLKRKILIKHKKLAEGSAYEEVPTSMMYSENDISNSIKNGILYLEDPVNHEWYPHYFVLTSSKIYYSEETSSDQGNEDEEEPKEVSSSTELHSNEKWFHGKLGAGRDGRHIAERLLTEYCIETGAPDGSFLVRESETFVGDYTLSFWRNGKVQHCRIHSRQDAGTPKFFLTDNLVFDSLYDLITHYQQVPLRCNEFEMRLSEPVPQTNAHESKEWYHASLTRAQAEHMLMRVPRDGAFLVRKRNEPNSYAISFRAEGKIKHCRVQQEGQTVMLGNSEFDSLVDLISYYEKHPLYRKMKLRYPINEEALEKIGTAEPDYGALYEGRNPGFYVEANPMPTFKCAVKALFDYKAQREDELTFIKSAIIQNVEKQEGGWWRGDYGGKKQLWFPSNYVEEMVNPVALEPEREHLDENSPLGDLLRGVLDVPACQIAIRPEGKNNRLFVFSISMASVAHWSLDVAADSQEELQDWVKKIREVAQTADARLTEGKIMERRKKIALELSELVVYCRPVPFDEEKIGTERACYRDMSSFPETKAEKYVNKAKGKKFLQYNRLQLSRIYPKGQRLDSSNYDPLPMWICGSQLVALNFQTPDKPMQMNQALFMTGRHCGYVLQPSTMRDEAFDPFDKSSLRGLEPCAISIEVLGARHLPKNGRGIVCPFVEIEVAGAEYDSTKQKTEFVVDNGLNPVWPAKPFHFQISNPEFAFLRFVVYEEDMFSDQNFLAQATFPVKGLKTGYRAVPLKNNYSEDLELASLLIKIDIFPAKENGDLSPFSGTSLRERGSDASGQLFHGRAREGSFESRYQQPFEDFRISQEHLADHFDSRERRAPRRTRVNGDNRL

[7] = molecular target: T2, 1-phosphatidylinositol 4,5-bisphosphate phosphodiesterase beta-3 (Homo sapiens, UniProt Q01970); assay: Fluorescence-based biochemical high throughput dose response assay to identify inhibitors of phospholipase C isozymes (PLC-B3).
T2 sequence (Q01970 whole entry): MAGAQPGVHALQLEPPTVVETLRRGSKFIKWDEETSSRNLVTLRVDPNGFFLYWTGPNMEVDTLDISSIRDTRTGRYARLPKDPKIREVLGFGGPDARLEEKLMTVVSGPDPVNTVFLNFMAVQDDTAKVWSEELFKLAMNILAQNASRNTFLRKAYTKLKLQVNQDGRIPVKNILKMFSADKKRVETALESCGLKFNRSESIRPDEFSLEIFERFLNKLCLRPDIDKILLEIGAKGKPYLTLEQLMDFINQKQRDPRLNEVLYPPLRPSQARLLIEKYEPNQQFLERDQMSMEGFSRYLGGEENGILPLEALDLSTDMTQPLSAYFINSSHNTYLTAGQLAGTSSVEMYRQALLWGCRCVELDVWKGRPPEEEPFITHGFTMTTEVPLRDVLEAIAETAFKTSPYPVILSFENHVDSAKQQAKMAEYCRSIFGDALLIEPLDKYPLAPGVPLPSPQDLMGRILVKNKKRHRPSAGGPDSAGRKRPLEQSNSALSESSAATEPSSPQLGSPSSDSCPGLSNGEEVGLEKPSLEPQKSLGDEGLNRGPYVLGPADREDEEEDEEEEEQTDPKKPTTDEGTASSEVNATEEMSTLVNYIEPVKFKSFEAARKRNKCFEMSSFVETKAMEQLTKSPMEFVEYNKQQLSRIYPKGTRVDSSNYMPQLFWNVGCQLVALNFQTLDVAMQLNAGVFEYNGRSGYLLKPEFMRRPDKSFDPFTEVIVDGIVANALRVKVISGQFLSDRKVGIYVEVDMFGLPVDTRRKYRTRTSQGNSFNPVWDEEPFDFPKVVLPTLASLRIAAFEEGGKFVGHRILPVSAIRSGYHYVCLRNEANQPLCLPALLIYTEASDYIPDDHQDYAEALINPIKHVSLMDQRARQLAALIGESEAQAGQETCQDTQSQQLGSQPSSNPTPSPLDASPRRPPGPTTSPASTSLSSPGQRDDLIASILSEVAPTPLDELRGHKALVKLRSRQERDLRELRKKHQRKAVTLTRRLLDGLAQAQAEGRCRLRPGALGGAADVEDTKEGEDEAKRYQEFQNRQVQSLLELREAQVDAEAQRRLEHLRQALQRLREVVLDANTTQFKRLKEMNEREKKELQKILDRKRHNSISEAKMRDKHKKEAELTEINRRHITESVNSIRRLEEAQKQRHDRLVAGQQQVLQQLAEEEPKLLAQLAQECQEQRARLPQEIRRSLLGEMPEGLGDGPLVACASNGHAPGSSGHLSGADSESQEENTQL

[8] = molecular target: Eukaryotic translation initiation factor 4E (Mus musculus, UniProt P63073); assay: blockers of eIF4G binding by eIF4E – biochemical, TR-FRET, dose response (AID 855); type: functional;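 also: potency for disrupting eIF4E binding to eIF4GI seen as loss of FRET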
Large T antigen = Large T antigen (Simian virus 40, UniProt P03070); type: functional, Betapolyomavirus macacae;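 also: Confirmatory-stage PubChem screen for compounds that inhibit SV40 T antigen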
[9] = toxicity toward HepG2 liver cells – cell-based, plate reader, cherry-pick, antagonist series, cytotoxicity control, dose response (AID 743416); type: functional
[10] = A549 cell cytotoxicity, dose response, cytotoxicity control, plate reader, cherry-pick, antagonist series (AID 743412); type: functional, cell-based
[11] = blockade of melanocortin 4 receptor signaling – cell-based, plate reader, cherry pick, counter-screen for LGR2 antagonist project, dose response (AID 743444); type: functional;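 also: transfected HEK 293 cells stimulated with alpha-MSH peptide; potency of inhibitors of the alpha-MSH evoked signal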
[12] = viability loss in HEK293 cells – cell-based, plate reader, cherry-picked samples, cytotoxicity control, dose response (AID 743446); type: functional
[13] = blockers of bursicon-stimulated LGR2 cAMP reporter – cell-based, HEK293, CRE-luciferase reporter, cherry pick, set 2, dose response (AID 743343); type: functional;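 also: transfected cells were stimulated with diluted bursicon conditioned medium after compound addition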
[14] = toxicity to human hepatoma HepG2 cells – cell-based, cherry-picked samples, cytotoxicity control, dose response (AID 1159577); type: functional
[15] = Dd2 parasite growth inhibition in erythrocytes – SYBR Green, dry powder samples, set 9, dose response (AID 1159568); type: functional, cell-based

Eukaryotic translation initiation factor 4E, sequence (P63073 whole entry): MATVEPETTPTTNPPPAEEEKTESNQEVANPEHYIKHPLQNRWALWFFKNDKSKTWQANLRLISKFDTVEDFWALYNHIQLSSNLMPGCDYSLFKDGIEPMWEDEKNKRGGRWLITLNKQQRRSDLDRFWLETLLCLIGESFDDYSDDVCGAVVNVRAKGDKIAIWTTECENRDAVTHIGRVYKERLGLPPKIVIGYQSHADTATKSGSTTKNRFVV
Large T antigen, sequence (P03070 whole entry): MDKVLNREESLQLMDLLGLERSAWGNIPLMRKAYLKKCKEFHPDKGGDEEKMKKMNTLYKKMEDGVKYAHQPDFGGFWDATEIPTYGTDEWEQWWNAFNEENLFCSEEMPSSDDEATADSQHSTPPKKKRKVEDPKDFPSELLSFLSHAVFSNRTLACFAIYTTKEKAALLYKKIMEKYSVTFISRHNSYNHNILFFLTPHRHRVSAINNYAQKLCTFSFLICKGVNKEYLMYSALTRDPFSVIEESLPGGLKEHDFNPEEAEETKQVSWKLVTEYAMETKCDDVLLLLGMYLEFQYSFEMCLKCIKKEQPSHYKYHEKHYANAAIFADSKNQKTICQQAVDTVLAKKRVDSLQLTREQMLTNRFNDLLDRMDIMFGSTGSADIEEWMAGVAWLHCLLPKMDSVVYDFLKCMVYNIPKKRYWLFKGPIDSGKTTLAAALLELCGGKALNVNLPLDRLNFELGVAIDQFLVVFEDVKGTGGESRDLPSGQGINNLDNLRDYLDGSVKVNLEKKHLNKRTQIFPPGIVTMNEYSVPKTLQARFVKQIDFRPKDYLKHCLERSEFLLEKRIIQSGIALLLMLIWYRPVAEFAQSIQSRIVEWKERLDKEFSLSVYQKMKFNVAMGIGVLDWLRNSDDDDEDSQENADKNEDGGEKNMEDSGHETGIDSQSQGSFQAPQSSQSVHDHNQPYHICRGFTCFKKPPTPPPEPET

Compound | AC50 [1] | AC50 [2] | AC50 [3] | AC50 [4] | AC50 [5] | AC50 [14] | other results
COc1ccccc1-c1ccc2c(c1)[C@@H]1[C@@H](CCN1C(=O)C1CCCCC1)[C@@H](CO)N2 | 283 nM (active) | 11.1 µM (active) | 488 nM (active) | 498 nM (active) | 1.74 µM (active) | – | –
O=C(COC(=O)c1ccccc1C(=O)OCC(=O)NCCc1c[nH]c2ccccc12)NCCc1c[nH]c2ccccc12 | – | – | – | – | – | – | IC50 (H9c2): > 79 µM (inactive); IC50 [6]: > 123 µM (inactive); IC50 [7]: > 123 µM (inactive)
CCNc1nc(NC(C)C)nc(Oc2ccc(OCCOc3ccccc3)nn2)n1 | – | – | – | – | – | – | IC50 [8]: > 64 µM (inactive)
O=C1NC(=S)S/C1=C\c1ccc(SCc2ccccc2)o1 | – | – | – | – | – | – | IC50 (Large T antigen): > 100 µM (active); IC50 [6]: > 122 µM (inactive); IC50 [7]: > 122 µM (inactive)
C/N=C1/SC(CC(=O)NCCc2ccc(OC)c(OC)c2)C(=O)N1C (configuration not stated) | – | – | – | – | – | – | IC50 [6]: > 122 µM (inactive); IC50 [7]: > 122 µM (inactive)
COc1ccc(-c2nc(-c3ccccc3)no2)c(OC)c1 | – | – | – | – | – | – | AC50 [9]: 47.6 µM (active); AC50 [10]: 28.4 µM (active); AC50 [11]: 1.05 µM (active); AC50 [12]: 31.9 µM (active); AC50 [13]: 621 nM (active)
OC[C@@H]1[C@H](c2ccc(-c3ccc(F)cc3)cc2)[C@@H](CNC2CCCC2)N1CCC(F)(F)F | 113 nM (active) | 21.1 µM (active) | 259 nM (active) | 241 nM (active) | 0.401 µM (active) | > 39 µM (inactive) | AC50 [15]: 491 nM (active)
CCCC#Cc1ccc2c(c1)O[C@@H](CN(C)Cc1ccncc1)[C@H](C)CN([C@@H](C)CO)S2(=O)=O | – | – | – | – | 3.85 µM (active) | > 39 µM (inactive) | –
COc1ccc(-c2coc3c(C(=O)Nc4cc(OC)c(OC)c(OC)c4)cccc23)c(C)c1 | – | – | – | – | – | – | AC50 [9]: 18.3 µM (active); AC50 [10]: 9.94 µM (active); AC50 [11]: 0.905 µM (active); AC50 [12]: 15.3 µM (active); AC50 [13]: 1200 nM (active)
CCCc1cn(CC[C@@H]2CC[C@@H](NS(=O)(=O)c3ccc(-c4ccccc4)cc3)[C@@H](CO)O2)nn1 | 698 nM (active) | 33.6 µM (active) | 1600 nM (active) | 949 nM (active) | 1.45 µM (active) | > 39 µM (inactive) | –
COc1ccccc1S(=O)(=O)N(C)C[C@@H]1Oc2cc(/C=C/c3ccccc3)ccc2S(=O)(=O)N([C@H](C)CO)C[C@H]1C | 220 nM (active) | 81.6 µM (active) | 466 nM (active) | 215 nM (active) | 0.459 µM (active) | – | AC50 [15]: 443 nM (active)
O=C(Nc1ccc(F)cc1)N1CCCCN2[C@@H](CO)[C@H](c3ccc(C#Cc4ccccc4)cc3)[C@@H]2C1 | – | – | – | – | < 0.3 µM (active) | 7.42 µM (active) | –
